Where two headings read alike, the source gives them in different places.
Experiments:
[1] = biological target: T1, IR (Homo sapiens, UniProt P06213); assay: In vitro IR enzymatic assay (ADP-Glo kinase assay); type: biochemical; conditions: activated IR, 30 nM; for % Inh @ 30 nM (N1) / % Inh @ 30 nM (N2): 0.03 µM
T1 construct: purchased Millipore 14-803
Description: (§1) IC50 values of the compounds of the invention against IGF-1R and IR were measured in vitro using an ADP-Glo kinase assay Kit (Promega). […] Kinase reactions in both assays were conducted at 30° C. for 20 min with increasing concentrations of compounds of the invention.
Additional compounds of the invention were screened against activated IR.

[2] = system: Akt phosphorylation induced by IGF-1R; assay: Western blot analysis of Akt phosphorylation induced by IGF-1 in HT-29 cells; type: cell-based, Human; conditions: for Levels of phosphorylated AKT in treated cells (pAKT/actin): HT-29 cells, IGF-1; for p-AKT relative to levels with 0.1 nM compound: Table B2 lower part; for Normalized phosphorylated AKT (relative to actin) levels relative to 0.1 nM compound treatment: Table B2 upper part; for pAKT relative to 0.1 nM compound: derivatives of Cpd. No. 8b
Procedure, shortened: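 Phospho-Akt assessed by western blot in serum-depleted (24 h) human colon carcinoma HT-29 cells. Compounds applied for 2 h at 0.1–100 (0.1, 1, 10, 100); vehicle DMSO and 10 ng/mL IGF-1 served as controls. Protein in cleared lysates measured by BCA assay.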

[3] = biological target: T2, IGF-1R (Homo sapiens, UniProt P08069); assay: In vitro IGF-1R enzymatic assay (ADP-Glo kinase assay); type: biochemical; conditions: activated IGF-1R, 30 nM; for % Inh @ 30 nM (N1) / % Inh @ 30 nM (N2): 0.03 µM
T2 construct: purchased Millipore 14-802
Description: as §1
Additional compounds of the invention were screened against activated IGF-1R.

[4] = N1, read-out: % Inh @ 30 nM (N1)
[5] = N2, read-out: % Inh @ 30 nM (N2)
[6] = average, read-out: % Inh @ 30 nM Avg

T2 sequence (P08069 31-1367): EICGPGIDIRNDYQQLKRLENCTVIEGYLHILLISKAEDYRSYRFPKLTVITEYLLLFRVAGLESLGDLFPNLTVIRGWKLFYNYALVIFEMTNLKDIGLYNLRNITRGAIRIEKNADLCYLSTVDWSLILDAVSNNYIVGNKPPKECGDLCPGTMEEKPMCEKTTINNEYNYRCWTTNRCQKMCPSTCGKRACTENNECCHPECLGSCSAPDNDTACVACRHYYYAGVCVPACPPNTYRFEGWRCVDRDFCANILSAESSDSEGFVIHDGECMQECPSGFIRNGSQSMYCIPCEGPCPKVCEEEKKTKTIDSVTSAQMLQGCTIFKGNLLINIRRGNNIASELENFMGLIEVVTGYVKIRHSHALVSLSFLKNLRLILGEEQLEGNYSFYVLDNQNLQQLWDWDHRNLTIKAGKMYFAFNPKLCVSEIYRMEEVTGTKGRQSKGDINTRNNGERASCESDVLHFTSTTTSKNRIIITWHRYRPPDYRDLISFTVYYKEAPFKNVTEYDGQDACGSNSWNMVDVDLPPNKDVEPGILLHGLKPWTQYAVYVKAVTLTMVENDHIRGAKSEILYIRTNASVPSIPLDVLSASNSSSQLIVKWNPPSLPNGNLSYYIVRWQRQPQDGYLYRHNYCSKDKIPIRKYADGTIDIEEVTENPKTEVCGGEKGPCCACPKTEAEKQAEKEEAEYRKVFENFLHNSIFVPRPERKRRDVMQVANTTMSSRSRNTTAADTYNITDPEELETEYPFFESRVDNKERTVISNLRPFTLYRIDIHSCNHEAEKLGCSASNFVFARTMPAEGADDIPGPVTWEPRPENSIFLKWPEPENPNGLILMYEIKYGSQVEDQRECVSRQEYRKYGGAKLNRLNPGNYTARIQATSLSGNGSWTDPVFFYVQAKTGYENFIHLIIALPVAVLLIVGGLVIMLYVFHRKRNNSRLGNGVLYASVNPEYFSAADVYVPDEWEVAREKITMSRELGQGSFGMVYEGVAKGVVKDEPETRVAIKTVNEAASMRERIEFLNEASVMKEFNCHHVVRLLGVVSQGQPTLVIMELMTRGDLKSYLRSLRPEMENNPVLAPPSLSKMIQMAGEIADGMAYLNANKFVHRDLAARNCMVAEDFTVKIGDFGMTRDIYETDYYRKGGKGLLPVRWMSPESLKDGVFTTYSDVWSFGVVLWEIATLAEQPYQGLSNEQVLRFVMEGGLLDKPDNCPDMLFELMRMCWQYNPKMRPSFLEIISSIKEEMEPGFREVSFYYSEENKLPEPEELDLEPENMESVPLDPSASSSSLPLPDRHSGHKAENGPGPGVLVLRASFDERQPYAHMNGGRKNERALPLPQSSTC
T1 sequence (P06213 28-1382): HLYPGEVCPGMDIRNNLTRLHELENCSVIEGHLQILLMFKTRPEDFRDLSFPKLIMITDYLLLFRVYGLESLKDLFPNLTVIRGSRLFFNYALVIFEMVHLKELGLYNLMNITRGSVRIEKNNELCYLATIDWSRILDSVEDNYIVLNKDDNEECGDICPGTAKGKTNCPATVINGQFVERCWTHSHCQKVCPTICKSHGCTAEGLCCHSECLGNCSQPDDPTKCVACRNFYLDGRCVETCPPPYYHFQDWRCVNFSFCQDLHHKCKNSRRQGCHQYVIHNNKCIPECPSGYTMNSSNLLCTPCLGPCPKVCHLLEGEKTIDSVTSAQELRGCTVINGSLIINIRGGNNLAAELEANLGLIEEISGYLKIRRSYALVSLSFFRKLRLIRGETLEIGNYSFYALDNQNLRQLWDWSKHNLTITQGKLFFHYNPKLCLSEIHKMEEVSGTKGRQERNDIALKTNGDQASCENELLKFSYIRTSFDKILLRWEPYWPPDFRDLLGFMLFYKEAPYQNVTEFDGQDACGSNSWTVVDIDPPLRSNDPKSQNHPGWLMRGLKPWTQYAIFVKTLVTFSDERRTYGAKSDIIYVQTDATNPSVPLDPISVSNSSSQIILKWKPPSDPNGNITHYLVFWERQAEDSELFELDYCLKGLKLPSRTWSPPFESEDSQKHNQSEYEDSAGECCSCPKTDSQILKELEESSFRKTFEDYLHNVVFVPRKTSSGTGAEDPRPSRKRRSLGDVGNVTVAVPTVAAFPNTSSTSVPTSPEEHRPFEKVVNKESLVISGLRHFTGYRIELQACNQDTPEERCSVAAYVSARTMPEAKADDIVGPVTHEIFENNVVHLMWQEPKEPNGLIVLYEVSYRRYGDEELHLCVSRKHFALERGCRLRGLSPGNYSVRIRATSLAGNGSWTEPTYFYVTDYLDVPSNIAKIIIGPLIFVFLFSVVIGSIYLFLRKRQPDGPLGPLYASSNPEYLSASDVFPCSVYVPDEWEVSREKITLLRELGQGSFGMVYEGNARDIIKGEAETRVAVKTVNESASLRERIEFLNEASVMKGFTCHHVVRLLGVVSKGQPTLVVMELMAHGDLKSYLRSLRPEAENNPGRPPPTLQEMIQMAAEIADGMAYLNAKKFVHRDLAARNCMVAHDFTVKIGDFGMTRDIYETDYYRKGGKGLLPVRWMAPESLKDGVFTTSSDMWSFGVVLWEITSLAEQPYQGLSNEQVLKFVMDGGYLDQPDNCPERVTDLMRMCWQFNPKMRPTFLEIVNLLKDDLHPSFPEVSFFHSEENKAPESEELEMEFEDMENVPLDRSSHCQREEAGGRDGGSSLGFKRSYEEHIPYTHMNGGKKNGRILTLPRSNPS

Row | SMILES | inhibition at 0.03 µM [1, 4] [%] | inhibition at 0.03 µM [1, 5] [%] | inhibition at 0.03 µM [1, 6] [%] | Levels of phosphorylated AKT in treated cells (pAKT/actin) ([2]; 0.1 nM compound) | p-AKT relative to levels with 0.1 nM compound ([2]; 0.1 nM) | Normalized phosphorylated AKT (relative to actin) levels relative to 0.1 nM compound treatment ([2]; 0.1 nM) | Levels of phosphorylated AKT in treated cells (pAKT/actin) ([2]; 1 nM compound) | p-AKT relative to levels with 0.1 nM compound ([2]; 1 nM) | Normalized phosphorylated AKT (relative to actin) levels relative to 0.1 nM compound treatment ([2]; 1 nM) | Levels of phosphorylated AKT in treated cells (pAKT/actin) ([2]; 10 nM compound) | p-AKT relative to levels with 0.1 nM compound ([2]; 10 nM) | Normalized phosphorylated AKT (relative to actin) levels relative to 0.1 nM compound treatment ([2]; 10 nM) | Levels of phosphorylated AKT in treated cells (pAKT/actin) ([2]; 100 nM compound) | p-AKT relative to levels with 0.1 nM compound ([2]; 100 nM) | Normalized phosphorylated AKT (relative to actin) levels relative to 0.1 nM compound treatment ([2]; 100 nM) | inhibition at 0.03 µM [3, 4] [%] | inhibition at 0.03 µM [3, 5] [%] | inhibition at 0.03 µM [3, 6] [%] | % Inh @ 30 nM (N1) ([1]; N1) [%] | % Inh @ 30 nM (N2) ([1]; N2) [%] | other results
1 | CC(C)c1cc(Nc2nc(N3CCCC3C(=O)Nc3ccc(F)nc3)nc3c2CCCC3)n[nH]1 (single isomer, unassigned) [Compound 13b, N-(6-fluoropyridin-3-yl)-1-(4-(5-isopropyl-1H-pyrazol-3-ylamino)-5,6,7,8-tetrahydroquinazolin-2-yl)pyrrolidine-2-carboxamide] | 84 | 80 | 82 | 0.22 | 1.0 | 1.0 | 0.09 | 0.4 | 0.4 | 0.00 | 0.0 | 0.0 | 0.00 | 0.0 | 0.0 | 82 | 80 | 81 |  |  | pAKT relative to 0.1 nM compound ([2]; 0.1 nM): 1.00; pAKT relative to 0.1 nM compound ([2]; 1 nM): 0.49; pAKT relative to 0.1 nM compound ([2]; 10 nM): 0.04; pAKT relative to 0.1 nM compound ([2]; 100 nM): 0.02
2 | O=C(Nc1ccc(F)nc1)C1CCCN1c1nc2c(c(Nc3cc(C4CC4)[nH]n3)n1)CCC2 (single isomer, unassigned) [Compound 2a, 1-(4-(5-cyclopropyl-1H-pyrazol-3-ylamino)-6,7-dihydro-5H-cyclopenta[d]pyrimidin-2-yl)-N-(6-fluoropyridin-3-yl)pyrrolidine-2-carboxamide] | 0 | 10 | 5 | 1.70 | 1.0 | 1.0 | 1.78 | 1.0 | 1.0 | 1.81 | 1.1 | 1.1 | 1.72 | 1.0 | 1.0 | -12 | 18 | 3 |  |  | 
3 | O=C(Nc1ccc(F)nc1)C1C(O)CCN1c1nc2c(c(Nc3cc(C4CC4)[nH]n3)n1)CCC2 (single isomer, unassigned) [Compound 11b, 1-(4-(5-cyclopropyl-1H-pyrazol-3-ylamino)-6,7-dihydro-5H-cyclopenta[d]pyrimidin-2-yl)-N-(6-fluoropyridin-3-yl)-3-hydroxypyrrolidine-2-carboxamide] |  |  |  | 1.55 | 1.0 | 1.0 | 1.76 | 1.1 | 1.1 | 1.43 | 0.9 | 0.9 | 0.33 | 0.2 | 0.2 |  |  |  | −2 | 9 | % Inh @ 30 nM Avg ([1]; average): 3%; % Inh @ 30 nM (N1) ([3]; N1): 22%; % Inh @ 30 nM (N2) ([3]; N2): 11%; % Inh @ 30 nM Avg ([3]; average): 17%
4 | CC(C)c1cc(Nc2nc(N3CCCCC3C(=O)Nc3ccc(F)nc3)nc3c2CCC3)n[nH]1 (single isomer, unassigned) [Compound 16b, N-(6-fluoropyridin-3-yl)-1-(4-(5-isopropyl-1H-pyrazol-3-ylamino)-6,7-dihydro-5H-cyclopenta[d]pyrimidin-2-yl)piperidine-2-carboxamide] |  |  |  | 0.53 | 1.0 | 1.0 | 0.51 | 1.0 | 1.0 | 0.15 | 0.3 | 0.3 | 0.01 | 0.0 | 0.0 |  |  |  | 26 | 23 | % Inh @ 30 nM Avg ([1]; average): 25%; % Inh @ 30 nM (N1) ([3]; N1): 40%; % Inh @ 30 nM (N2) ([3]; N2): 40%; % Inh @ 30 nM Avg ([3]; average): 40%
5 | CC(C)c1cc(Nc2nc(N3CCCC3C(=O)Nc3ccc(F)nc3)nc3c2CCC3)on1 (racemic) [Compound 12b, N-(6-fluoropyridin-3-yl)-1-(4-(3-isopropylisoxazol-5-ylamino)-6,7-dihydro-5H-cyclopenta[d]pyrimidin-2-yl)pyrrolidine-2-carboxamide] | -14 | -10 | -12 | 3.66 | 1.0 | 1.0 | 3.56 | 1.0 | 1.0 | 4.32 | 1.2 | 1.2 | 2.29 | 0.6 | 0.6 | 13 | 34 | 24 |  |  | 
